Data from US20020164620A1, “Method for identifying compounds modulating sister chromatid separation” (Boehringer Ingelheim International GmbH, priority 2001, published 2002).
“Also recorded” adds a separate entry of the source. No end group written: not given here. *: point of attachment. acyloxymethyl ketone = C-terminal acyloxymethyl ketone; Biotin = O=C1N[C@H]2[C@H](CS[C@H]2CCCCC(=O)*)N1

What was measured:
human separase [1] = assay: SCC1 in vitro cleavage assay; assay type: biochemical
Experimental: 30 microliter beads were incubated with 40 μg bacterially expressed wildtype securin, destruction box deleted form of securin (Gmachl et al., 2000) or BSA diluted in XB+1 mM DTT for 40 min at RT. Subsequently the beads were washed with XB+1 mM DTT and with TBS+0.5 M NaCl+1 mM DTT+0.5% TWEEN20, followed by one wash with XB+1 mM DTT. To control the rebinding of securin an aliquot of 5 μl was taken per assay and subsequently analysed by immunoblotting with antibodies against separase and securin.
The beads were used for the SCC1 in vitro cleavage assay: 20 μl beads were mixed with 30 μl of the following SCC1 in vitro translation mix (SCC1 myc IVT+1 μl PLK-GST+0.3 μl […], 0.3 μl 100 mM ATP, 0.12 μl 250 mM EGTA, 13.78 μl XB+1 mM DTT) and incubated at 22° C. and 1200 rpm. 5 μl were taken per time point, the reaction was stopped by addition of SDS loading buffer. Samples were analyzed by immunoblotting with mouse monoclonal antibodies against myc (9E10).
(§1) B. Separase immunoprecipitates were incubated with 100 μM Biotin-SVEQGR-amk or with DMSO prior mitotic activation. Incubation for 10 minutes, 22° C. and 1000 rpm. After washing twice in XB+1 mM DTT the activation was performed in mitotic Xenopus egg extracts.
(§2) Interphase Xenopus egg extracts were driven into mitosis in the presence of 1 mM Biotin-SVEQGR-amk or DMSO. Those mitotic Xenopus egg extracts were used to activate a batch of separase immunoprecipitates.

human separase [2] = molecular target: human separase (Homo sapiens, UniProt Q14674); settings: same concentration at which SCC1 cleavage was inhibited
Sequence of human separase (Homo sapiens, UniProt Q14674) (Q14674 whole entry): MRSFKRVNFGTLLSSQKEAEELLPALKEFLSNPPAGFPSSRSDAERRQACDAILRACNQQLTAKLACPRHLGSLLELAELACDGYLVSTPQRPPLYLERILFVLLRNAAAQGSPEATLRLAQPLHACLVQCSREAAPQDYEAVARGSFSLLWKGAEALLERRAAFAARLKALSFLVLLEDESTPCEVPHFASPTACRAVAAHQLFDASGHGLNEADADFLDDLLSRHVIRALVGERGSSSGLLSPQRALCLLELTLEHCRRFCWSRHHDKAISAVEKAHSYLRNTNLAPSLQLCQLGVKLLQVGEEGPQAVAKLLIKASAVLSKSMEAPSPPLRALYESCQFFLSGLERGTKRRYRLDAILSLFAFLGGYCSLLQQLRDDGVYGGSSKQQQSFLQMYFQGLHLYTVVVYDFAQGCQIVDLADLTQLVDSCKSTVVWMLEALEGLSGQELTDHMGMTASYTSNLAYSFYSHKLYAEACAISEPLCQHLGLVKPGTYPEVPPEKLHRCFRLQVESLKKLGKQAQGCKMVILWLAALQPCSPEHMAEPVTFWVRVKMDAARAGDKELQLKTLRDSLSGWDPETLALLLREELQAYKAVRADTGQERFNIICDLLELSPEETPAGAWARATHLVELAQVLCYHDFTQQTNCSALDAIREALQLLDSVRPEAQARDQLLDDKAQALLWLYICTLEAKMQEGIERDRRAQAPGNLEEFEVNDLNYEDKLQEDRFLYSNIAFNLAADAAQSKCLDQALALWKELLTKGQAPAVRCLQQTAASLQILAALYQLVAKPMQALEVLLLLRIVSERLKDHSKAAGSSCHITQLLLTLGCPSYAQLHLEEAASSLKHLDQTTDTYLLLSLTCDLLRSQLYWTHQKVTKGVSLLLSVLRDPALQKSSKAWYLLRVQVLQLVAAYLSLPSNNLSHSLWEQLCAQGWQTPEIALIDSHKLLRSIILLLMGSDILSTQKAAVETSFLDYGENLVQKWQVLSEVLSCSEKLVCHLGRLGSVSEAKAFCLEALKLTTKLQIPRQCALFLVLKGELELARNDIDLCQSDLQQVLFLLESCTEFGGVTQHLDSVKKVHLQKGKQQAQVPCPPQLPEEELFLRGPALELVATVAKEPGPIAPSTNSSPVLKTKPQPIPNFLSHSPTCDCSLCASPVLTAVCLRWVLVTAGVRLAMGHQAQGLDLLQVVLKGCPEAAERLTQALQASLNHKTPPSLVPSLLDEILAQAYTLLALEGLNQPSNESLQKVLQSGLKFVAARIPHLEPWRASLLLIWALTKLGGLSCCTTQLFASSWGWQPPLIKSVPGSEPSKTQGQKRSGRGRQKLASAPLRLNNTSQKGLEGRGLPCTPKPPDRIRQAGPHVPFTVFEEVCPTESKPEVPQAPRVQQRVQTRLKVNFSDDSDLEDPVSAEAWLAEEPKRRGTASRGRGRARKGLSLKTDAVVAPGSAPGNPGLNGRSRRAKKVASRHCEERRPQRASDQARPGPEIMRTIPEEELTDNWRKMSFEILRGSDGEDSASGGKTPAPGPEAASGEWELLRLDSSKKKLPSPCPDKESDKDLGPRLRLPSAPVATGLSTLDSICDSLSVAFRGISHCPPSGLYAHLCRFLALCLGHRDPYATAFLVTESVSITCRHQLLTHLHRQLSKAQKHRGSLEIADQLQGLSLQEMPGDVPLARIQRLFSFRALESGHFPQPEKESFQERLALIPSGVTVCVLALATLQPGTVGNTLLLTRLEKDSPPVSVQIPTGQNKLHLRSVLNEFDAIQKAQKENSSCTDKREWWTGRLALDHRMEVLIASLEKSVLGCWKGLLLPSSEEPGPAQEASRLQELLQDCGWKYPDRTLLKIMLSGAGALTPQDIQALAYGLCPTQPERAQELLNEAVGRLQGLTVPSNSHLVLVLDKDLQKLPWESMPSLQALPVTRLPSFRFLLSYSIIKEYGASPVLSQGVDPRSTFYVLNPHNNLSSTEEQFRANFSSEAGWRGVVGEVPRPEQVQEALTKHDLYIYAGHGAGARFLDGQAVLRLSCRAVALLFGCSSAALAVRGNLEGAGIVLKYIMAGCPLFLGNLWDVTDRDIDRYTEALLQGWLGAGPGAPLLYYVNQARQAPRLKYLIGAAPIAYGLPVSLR
Experimental: A. Mitotically activated separase immunoprecipitates were preincubated with yeast peptides (Uhlmann et al., 2000) before they were used in the SCC1-cleavage assay. Biotin-SVEQGR-amk or Biotin-SVEQGR-cmk were used at different concentration (0.1, 1, 10, 100, 1000 μM in XB+0.5 mM DTT). Separase immunoprecipitates were incubated for 10 minutes, 22° C. and 1200 rpm. The SCC1 in vitro cleavage assay was performed after washing once with XB+0.5 mM DTT (see above). Human peptides, Biotin-DREIMR-amk or DREIMR-amk, were diluted and used as above described for the yeast peptides.

human separase [3] = assay: Covalent labelling of separase forms by biotin peptide (avidin blot); assay type: binding
Experimental: as §1, §2
Biotin labeled peptides were detected via immunoblotting according to Faleiro et al., 1997.
C. Mitotically activated separase immunoprecipitates were preincubated with either 8 μg recombinant securin or with 8 μg of a C-terminal truncated version of cyclinB in 100 μl XB+1 mM DTT for 30 min at 22° C. and 1250 rpm. Subsequently the beads were washed twice with TBS+0.5 M NaCl+1 mM DTT+0.5% Tween 20 and twice with XB+1 mM DTT. Thereafter beads were incubated with 100 μl of 100 μM Bio-DREIMR-amk in XB+[…]. After 10 min incubation at 22° C. and 1250 rpm beads were again washed and analyzed by immunoblotting.
FIG. 4B: Separase IPs (see A) were either preincubated with Biotin-SVEQGR-amk (preinc. with inh. peptide) or with DMSO (preinc. with DMSO), subsequently washed and aliquots were taken. Thereafter they were incubated in mitotic Xenopus egg extracts and washed again. Samples were taken for analysis (1i, 1c). Separase IPs were activated either in mitotic Xenopus egg extracts which were driven into mitosis in the presence of Biotin-SVEQGR-amk or DMSO, subsequently washed and aliquots were taken for analysis (2i, 2c). Already mitotically activated separase IPs (see A) were incubated with Biotin-SVEQGR-amk or DMSO, thereafter washed and aliquots were taken for analysis (3i, 3c). All samples were analysed by immunoblotting with avidin.
FIG. 4D: Activated separase immunoprecipitates bound by antibodies against the C-terminus of separase to beads were first incubated with recombinant securin or, for control, with recombinant truncated cyclinB. […] Thereafter, the immunoprecipitates were again washed and analyzed by immunoblotting.

[4] = substance added to mitotically activated separase immunoprecipitates before SCC1-myc reaction mix
[5] = activation in mitotic Xenopus extracts in presence of peptide (lane 2i)

Sequence of human separase (Q14674 1536-2120 limits assumed): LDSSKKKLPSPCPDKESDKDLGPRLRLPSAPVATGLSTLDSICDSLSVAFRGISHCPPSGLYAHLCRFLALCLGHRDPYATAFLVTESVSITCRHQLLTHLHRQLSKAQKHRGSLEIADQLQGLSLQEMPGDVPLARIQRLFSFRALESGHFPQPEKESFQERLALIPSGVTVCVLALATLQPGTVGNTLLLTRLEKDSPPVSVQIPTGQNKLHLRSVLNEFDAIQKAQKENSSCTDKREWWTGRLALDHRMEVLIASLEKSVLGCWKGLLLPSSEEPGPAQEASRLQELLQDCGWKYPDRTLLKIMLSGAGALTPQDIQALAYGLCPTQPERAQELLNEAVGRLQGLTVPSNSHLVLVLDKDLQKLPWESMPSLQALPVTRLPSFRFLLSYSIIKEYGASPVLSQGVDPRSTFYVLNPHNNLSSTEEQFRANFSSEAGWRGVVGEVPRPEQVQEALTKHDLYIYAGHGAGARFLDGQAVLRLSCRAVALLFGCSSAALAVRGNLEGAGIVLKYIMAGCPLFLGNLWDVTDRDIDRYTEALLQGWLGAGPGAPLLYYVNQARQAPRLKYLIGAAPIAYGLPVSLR

Substance	SCC1 cleavage by separase (human separase [1]; [4])	relative effectiveness of the two yeast peptide inhibitors (human separase [1])	SCC1 cleavage by separase (human separase [1]; [5])	SCC1 cleavage by separase (human separase [1]; peptide added before activation and washed away before mitotic Xenopus extract (lane 1i))	formation of the p55 cleavage product of human separase (human separase [2])	separase forms labeled by the peptide (human separase [3]; [5])	separase forms bound by the peptide (human separase [3]; peptide added after activation in mitotic Xenopus extracts (lane 3i))	separase forms labeled by the peptide (human separase [3]; peptide added before activation in mitotic Xenopus extracts (lane 1i))
DREIMR-amk: peptide inhibitor based on the cleavage recognition site of human SCC1, DREIMR, acyloxymethyl ketone (DREIMR-{acyloxymethyl ketone})	able to inhibit separase at a similar concentration as the peptide inhibitors derived from yeast							
Bio-SVEQGR-amk: synthetic peptide with budding yeast SCC1 cleavage site SVEQGR, C-terminal acyloxymethyl ketone, N-terminal biotin (Biotin-SVEQGR-{acyloxymethyl ketone})	inhibited SCC1 cleavage by separase; also recorded: able to block the ability of separase to cleave SCC1	the more effective one of the two yeast peptide inhibitors	separase was unable to cleave SCC1	separase could be activated normally to cleave SCC1	largely inhibited	both the cleaved forms of separase and full-length separase were covalently labeled	bound exclusively to the cleaved forms of human separase	only the small amount of p60 that is already present in these immunoprecipitates was labeled
